Experimental findings from US20120189670A1, “PHARMACEUTICAL COMPOSITIONS AND FORMULATIONS INCLUDING INHIBITORS OF THE PLECKSTRIN HOMOLOGY DOMAIN AND METHODS FOR USING SAME” (priority 2009, published 2012) are described below.

Assay [1] has as its target AKT (phospho-Ser^473-AKT) in BxPC-3 (Homo sapiens, UniProt P31749). As to the kind of experiment: Western blot phospho-Ser473-AKT in BxPC-3 cells. The conditions noted are these: for inhibition at 10 µM: BXPC-3, read-out: % pAKT Inhibition At 10 μM.
Assay [2] has as its system BxPC-3 pancreatic cell lines. As to the kind of experiment: MTT cell survival, BxPC-3. The class given is cell-based. As to conditions: Homo sapiens; BxPC-3, MTT.
Assay [3] addresses AKT (phospho-Ser^473-AKT) in MiaPaCa-2 cells (Homo sapiens, UniProt P31749). Kind of assay: Western blot phospho-Ser473-AKT in MiaPaCa-2 cells. As to conditions: for pAKT inhibition (IC50): MiaPaCa-2 cells.
A further assay concerns pancreatic cancer cells. As to the kind of experiment: Cell viability assay (Table 3). As to conditions: for Cell viability (IC50): viability assay, cell line not given; for IC50: Homo sapiens, Pancreatic cancer cell, read-out: Cell viability (IC50).

Sequence of AKT (phospho-Ser^473-AKT) in MiaPaCa-2 cells (P31749 whole entry): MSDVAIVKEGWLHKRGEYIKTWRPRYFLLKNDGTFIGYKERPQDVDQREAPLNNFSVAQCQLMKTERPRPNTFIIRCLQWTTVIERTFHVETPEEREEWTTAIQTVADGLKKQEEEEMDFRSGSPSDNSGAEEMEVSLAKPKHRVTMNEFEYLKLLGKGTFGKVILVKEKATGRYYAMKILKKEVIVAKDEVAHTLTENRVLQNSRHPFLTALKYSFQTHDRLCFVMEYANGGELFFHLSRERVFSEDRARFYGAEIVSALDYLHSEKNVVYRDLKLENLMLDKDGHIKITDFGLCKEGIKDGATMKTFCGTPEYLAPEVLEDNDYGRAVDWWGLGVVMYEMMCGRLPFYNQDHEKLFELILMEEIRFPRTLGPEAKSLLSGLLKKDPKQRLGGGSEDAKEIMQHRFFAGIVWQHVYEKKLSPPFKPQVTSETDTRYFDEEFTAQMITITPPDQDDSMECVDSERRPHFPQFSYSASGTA
Sequence of AKT (phospho-Ser^473-AKT) in BxPC-3 (P31749 whole entry): as above

What is called inhibition is how much of the control response was suppressed. Consider `Cc1nnc(NS(=O)(=O)c2ccc(N)cc2)s1` [Compound 105, 4-Amino-N-(5-methyl-1,3,4-thiadiazol-2-yl)benzenesulfonamide], for which the inhibition at 10 µM in assay [1] stood at 11%. Regarding `CC(=O)Nc1ccc(S(=O)(=O)Nc2nnc(C)s2)cc1` [Compound 106, N-(4-(N-(5-Methyl-1,3,4-thiadizol-2-yl)sulfamoyl)phenyl)acetamide], the inhibition at 10 µM in assay [1] was less than 10%. Usually IC50 stands for the concentration that inhibits the measured activity by half. Take `CCCCCCCCCCCCc1ccc(S(=O)(=O)Nc2nnc(C)s2)cc1` [Compound 108, 4-Dodecyl-N-(5-methyl-1,3,4-thiadiazol-2-yl)benzenesulfonamide]: half-maximal inhibition in assay [2] (IC50) was put at 61 µM. Further, the inhibition at 10 µM in assay [1] is 64%. For `CCc1nnc(NS(=O)(=O)c2ccc(N)cc2)s1` [Compound 109, 4-Amino-N-(5-ethyl-1,3,4-thiadiazol-2-yl)benzenesulfonamide], the inhibition at 10 µM in assay [1] was determined as 16%. The same measure, in the same setting: the value for `CCc1nnc(NS(=O)(=O)c2ccc(NC(C)=O)cc2)s1` [Compound 110, N-(4-(N-(5-Ethyl-1,3,4-thiadizol-2-yl)sulfamoyl)phenyl)acetamide] was 45%. Turning to `CCCCCCCCCCCCc1ccc(S(=O)(=O)Nc2nnc(CC)s2)cc1` [Compound 112, 4-Dodecyl-N-(5-ethyl-1,3,4-thiadiazol-2-yl)benzenesulfonamide], the midpoint of inhibition in assay [2], the IC50, lay at 32 µM. As to `CC(C)(C)c1nnc(NS(=O)(=O)c2ccc(N)cc2)s1` [Compound 113, 4-Amino-N-(5-tert-butyl-1,3,4-thiadiazol-2-yl)benzenesulfonamide], the inhibition at 10 µM in assay [1] was found to be 13%.

Consider `CC(=O)Nc1ccc(S(=O)(=O)Nc2nnc(C(C)(C)C)s2)cc1` [Compound 114, N-(4-(N-(5-tert-Butyl-1,3,4-thiadiazol-2-yl)sulfamoyl)phenyl)acetamide], for which, in assay [1], the inhibition at 10 µM was found to be 20%. In turn, `CCCCCCCCCCCCc1ccc(S(=O)(=O)Nc2nnc(C(C)(C)C)s2)cc1` [Compound 116, N-(5-tert-Butyl-1,3,4-thiadiazol-2-yl)-4-dodecylbenzenesulfonamide] returned an IC50 in assay [2] of 45 µM. Also, the inhibition at 10 µM in assay [1] is 36%. As to `Nc1ccc(S(=O)(=O)Nc2nnc(CC(=O)O)s2)cc1` [Compound 117, 2-(5-(4-Aminophenylsulfonamido)-1,3,4-thiadiazol-2-yl)acetic Acid], the inhibition at 10 µM in assay [1] was determined as 23%. As to `CC(=O)Nc1ccc(S(=O)(=O)Nc2nnc(CC(=O)O)s2)cc1` [Compound 118, 2-(5-(4-Acetamidophenylsulfonamido)-1,3,4-thiadiazol-2-yl)acetic Acid], in assay [1], the inhibition at 10 µM came out at 19%. With `CCOC(=O)Cc1nnc(NS(=O)(=O)c2ccc(NC(C)=O)cc2)s1` [Compound 118E, Ethyl 2-(5-(4-Acetamidophenylsulfonamido)-1,3,4-thiadiazol-2-yl)acetate], in assay [1], the inhibition at 10 µM was 55%. `CCCCCCCCCCCCc1ccc(S(=O)(=O)Nc2nnc(CC(=O)O)s2)cc1` [Compound 120, 2-(5-(4-Dodecylphenylsulfonamido)-1,3,4-thiadiazol-2-yl)acetic Acid] yielded an IC50 in assay [2] greater than 100 µM. For `CCCCCCCCCCCCc1ccc(S(=O)(=O)Nc2nnc(CC(=O)OCC)s2)cc1` [Compound 120E, Ethyl 2-(5-(4-Dodecylphenylsulfonamido)-1,3,4-thiadiazol-2-yl)acetate], the IC50 in assay [2] amounted to 70 µM. For the compound `CCOC(=O)c1nnc(NS(=O)(=O)c2ccc(NC(C)=O)cc2)s1` [Compound 122E, Ethyl 5-(4-Acetamidophenylsulfonamido)-1,3,4-thiadiazole-2-carboxylate], in assay [1], the inhibition at 10 µM is less than 10%.

On to `CCCCCCCCCCCCc1ccc(S(=O)(=O)Nc2nnc(C(=O)OCC)s2)cc1` [Compound 124E, Ethyl 5-(4-dodecylphenylsulfonamido)-1,3,4-thiadiazole-2-carboxylate], for which, in assay [2], half-maximal inhibition (IC50) was put at 36 µM. Take `Nc1ccc(S(=O)(=O)Nc2nnc(CO)s2)cc1` [Compound 125, 4-Amino-N-(5-(hydroxymethyl)-1,3,4-thiadiazol-2-yl)benzenesulfonamide]: in assay [1], the inhibition at 10 µM came out at 10%.

`CC(=O)Nc1ccc(S(=O)(=O)Nc2nnc(CO)s2)cc1` [Compound 126, N-(4-(N-(5-(hydroxymethyl)-1,3,4-thiadiazol-2-yl)sulfamoyl)phenyl)acetamide]: the inhibition at 10 µM in assay [1] was less than 10%. Turning to `CCCCCCCCCCCCc1ccc(S(=O)(=O)Nc2nnc(CO)s2)cc1` [Compound 128, 4-Dodecyl-N-(5-(hydroxymethyl)-1,4-thiadiazol-2-yl)benzenesulfonamide], it took 37 µM to reach half-maximal inhibition in assay [2] (IC50).

Regarding `Nc1ccc(S(=O)(=O)Nc2nnc(S(N)(=O)=O)s2)cc1` [Compound 131, 5-(4-Aminophenylsulfonamido)-1,3,4-thiadiazole-2-sulfonamide], the inhibition at 10 µM in assay [1] came out at 18%. With `CCCCCCCCCCCCc1ccc(S(=O)(=O)Nc2nnc(CCCCCN(C)c3ccc([N+](=O)[O-])c4nonc34)s2)cc1` [Compound 137, 4-Dodecyl-N-(5-(5-(methyl(7-nitrobenzo[c][1,2,5]oxadiazol-4-yl)amino)pentyl)-1,3,4-thiadiazol-2-yl)benzenesulfonamide], the “AKT phosphorylation inhibition (qualitative)” value in assay [1] (BxPC-3 cells) was “inhibited AKT phosphorylation in a fashion similar to 104”. `CC(=O)Nc1ccc(S(=O)(=O)Nc2nnc(S(N)(=O)=O)s2)cc1` [Compound 138, N-(4-(N-(5-Sulfamoyl-1,3,4-thiadiazol-2-yl)sulfamoyl)phenyl)acetamide]: the inhibition at 10 µM in assay [1] was less than 10%. For `CCCCCCCCc1ccc(S(=O)(=O)Nc2nncs2)cc1` [Compound 153, 4-Octyl-N-(1,3,4-thiadiazol-2-yl)benzenesulfonamide], the inhibition at 10 µM in assay [1] was 10%. As to `CCCCCCc1ccc(S(=O)(=O)Nc2nncs2)cc1` [Compound 154, 4-Hexyl-N-(1,3,4-thiadiazol-2-yl)benzenesulfonamide], the inhibition at 10 µM in assay [1] is less than 10%. Still for that read-out and setting: the value for `CCCCc1ccc(S(=O)(=O)Nc2nncs2)cc1` [Compound 155, 4-Butyl-N-(1,3,4-thiadiazol-2-yl)benzenesulfonamide] was less than 10%.

As for `O=C(Nc1ccccc1SCCS(=O)(=O)c1ccc(Cl)cc1)c1ccccc1Cl` [Compound 436], the “pAKT inhibition (IC50)” value in assay [3] was “N/I”. In addition, the “Cell viability (IC50)” value with pancreatic cancer cells is given as “N/I”.

On to `O=S(=O)(Nc1nccs1)c1ccc2ccccc2c1` [Compound 437], for which the “pAKT inhibition (IC50)” value in assay [3] was “N/I”. Further, in the assay on pancreatic cancer cells, the “Cell viability (IC50)” value is on record as “N/I”.

Consider `O=C(O)c1ccccc1C(=O)Nc1ccccc1N1CCOCC1` [Compound 438], for which the “pAKT inhibition (IC50)” value in assay [3] is “N/I”. Besides, the “Cell viability (IC50)” value with pancreatic cancer cells was “N/I”. As to `O=C(Nc1ccccc1)c1ccccc1NC(=O)c1ccccc1C(=O)O` [Compound 439], the “Cell viability (IC50)” value in the assay with pancreatic cancer cells is listed as “N/I”. In assay [3], `CCOc1ccccc1C(=O)Nc1ccccc1C(=O)O` [Compound 441] displayed an IC50 of 25 µM. The “Cell viability (IC50)” value in the assay on pancreatic cancer cells is reported as “N/I”. Turning to `COc1ccc(NC(=O)c2ccccc2NC(=O)c2ccccc2C(=O)O)c(OC)c1` [Compound 442], the “pAKT inhibition (IC50)” value in assay [3] is reported as “N/I”. Further, the “Cell viability (IC50)” value in the assay with pancreatic cancer cells is recorded as “N/I”. In the case of `COc1cc(NS(=O)(=O)c2ccc(Nc3ccco3)cc2)nc(OC)n1` [Compound 444], the “Cell viability (IC50)” value with pancreatic cancer cells is “N/I”. Still for that read-out and setting: the value for `COc1cc(NS(=O)(=O)c2ccc(NC(=O)c3ccco3)cc2)nc(OC)n1` [Compound 445] was “N/I”.

`Cc1cc(C)nc(NS(=O)(=O)c2ccc(NC(=O)c3ccoc3C)cc2)n1` [Compound 446]: the “pAKT inhibition (IC50)” value in assay [3] is listed as “N/I”. Also, the “Cell viability (IC50)” value in the assay on pancreatic cancer cells is “N/I”. As for `Cc1cc(C)nc(NS(=O)(=O)c2ccc(NC(=O)c3ccoc3C)cc2)n1` [Compound 447], the “pAKT inhibition (IC50)” value in assay [3] was “N/I”. The “Cell viability (IC50)” value in the assay on pancreatic cancer cells is on record as “N/I”.

Consider `Cc1noc(C)c1S(=O)(=O)Nc1ccc(Oc2c(Cl)cccc2Cl)nc1` [Compound 448], for which the “pAKT inhibition (IC50)” value in assay [3] is reported as “N/I”. In addition, in the assay with pancreatic cancer cells, the IC50 was determined as 80 µM.

As for `COc1cccc(OC)c1C(=O)Nc1ccc(S(=O)(=O)Nc2ccccn2)cc1` [Compound 449], the “pAKT inhibition (IC50)” value in assay [3] is listed as “N/I”. Moreover, the IC50 in the assay on pancreatic cancer cells was 190 µM. For `COc1cc(NS(=O)(=O)c2ccc(C(C)=O)cc2)nc(OC)n1` [Compound 450], in the assay on pancreatic cancer cells, the “Cell viability (IC50)” value is on record as “N/I”. As to `CC(=O)Nc1ccc(NS(=O)(=O)c2c(C)noc2C)cc1` [Compound 451], the “pAKT inhibition (IC50)” value in assay [3] is on record as “N/I”. Further, the “Cell viability (IC50)” value in the assay with pancreatic cancer cells was “N/I”. Regarding `COc1cc(NS(=O)(=O)c2ccc(NC(=O)C(C)(C)C)cc2)nc(OC)n1` [Compound 452], in assay [3], the “pAKT inhibition (IC50)” value is recorded as “N/I”. Besides, the “Cell viability (IC50)” value with pancreatic cancer cells was “N/I”.

For the compound `Cc1onc(-c2ccccc2)c1C(=O)Nc1ccc(S(=O)(=O)Nc2ncccn2)cc1` [Compound 453], the “pAKT inhibition (IC50)” value in assay [3] was “N/I”. For the same compound, the “Cell viability (IC50)” value with pancreatic cancer cells is listed as “N/I”.

As to `COc1cc(NS(=O)(=O)c2ccc(Nc3ccco3)cc2)nc(OC)n1` [Compound 454], the “pAKT inhibition (IC50)” value in assay [3] was “N/I”.

In the case of `Cc1nnc(NS(=O)(=O)c2ccc(NS(=O)(=O)c3ccc4ccccc4c3)cc2)s1` [Compound 455], the “Cell viability (IC50)” value with pancreatic cancer cells was “did not exhibit cytotoxicity and N/I”.

Consider `Nc1ccc(S(=O)(=O)Nc2ccc(S(=O)(=O)Nc3nnc(S(N)(=O)=O)s3)cc2)cc1` [Compound 456], for which, in the assay on pancreatic cancer cells, the “Cell viability (IC50)” value is “N/I”.
